Assay results: patent US9428477B2, “Trans-2-decenoic acid derivative and drug containing same” (NIPPON ZOKI PHARMACEUTICAL CO., LTD., priority 2012, dated 2016)

Columns and labels:
[1] = test system: rats with paclitaxel-induced peripheral nerve disorder; assay: Rat peripheral nerve disorder induced by paclitaxel, von Frey test; format: in vivo; details: ip, test drug intraperitoneally, single dose, higher of values 1 and 5 hours after administration, mechanical stimulus of right hind limb, normal threshold 15, read-out: Recovery Rate of 50% Reaction Threshold Value
Description: The effects of the compounds of the present invention were evaluated for a peripheral nerve disorder which is a side effect induced by the administration of an anti-cancer agent paclitaxel, such as hyperesthesia including allodynia induced by mechanical stimuli, which is a severe pain induced by such tactile stimuli which usually cause no pains. The compound of the present invention was intraperitoneally administered to rats as a test drug to conduct a von Frey test.
Male SD rats of six weeks age (six rats per group) were used as experimental animals, and paclitaxel (2 mg/kg) was intraperitoneally administered every other day for four times in total to prepare rats with paclitaxel-induced peripheral nerve disorder. During the period of 18 to 25 days or during the period of 20 to 27 days after the initiation of paclitaxel administration, the test drug was intraperitoneally administered in a single dose of […], and the following von Frey test was conducted.
The rats of the above (1) were placed in a transparent acrylic cage with a wire-meshed floor and habituated for about three minutes, and the 50% reaction threshold values to the mechanical stimulus of right hind limb were measured before administration of the test drug and after 1 and 5 hours from the initiation of the administration.
The measurement was conducted using von Frey filaments (manufactured by North Coast Medical Inc.) in accordance with the methods of Chaplan, et al. (Journal of Neuroscience Methods, 53(1), 55-63, 1994) and Dixon, et al. (Annual Review of Pharmacology and Toxicology, 20, 441-462, 1980). […] The case where the rat escaped at the instance of removing the filament was also called positive. When the positive reaction was found, stimulus was applied similarly with a filament of one rank weaker, and in the absence of the reaction, stimulus was similarly applied with a filament of one rank stronger, and a point where the reaction changed from negative to positive or from positive to negative was called the first two reactions. Subsequently, stimuli were applied for continuously four times by the same up-down method. A 50% reaction threshold value to the mechanical stimulus was measured using the reaction to the six stimuli in total and then (mean value)±(standard error) for each group was calculated. Incidentally, when stimulus reached to a load of 15.0 g without positive reaction, or when positive reaction continued to a load of 0.4 g, 15.0 g or 0.25 g was adopted as each of 50% reaction threshold values. With regard to the higher 50% reaction threshold value between the 50% threshold values after 1 hour and 5 hours from administration of a test drug, a recovery rate (%) of the 50% reaction threshold value was calculated by the following expression in which 15 was taken as a normal threshold value.
Recovery rate (%) of 50% reaction threshold value=[(50% reaction threshold value after 1 hour or 5 hours from administration of test drug)−(50% reaction threshold value before administration of test drug)]/[(Normal threshold value)−(50% reaction threshold value before administration of test drug)]×100

MAP kinase (ERK1/2) = assay: Activation (phosphorylation) of MAP kinase under mild stress loads, hippocampus of chronic mild stress-induced depression model mice; format: in vivo; details: normal control 1.26±0.11, stress-loaded control 0.56±0.04
Description: As to the compounds of the present invention, the activation level of the MAP kinase (ERK1/2) was measured using chronic mild stress-induced depression model mice in the following manner. • (1) Preparation of Chronic Mild Stress-Induced Depression Model Mice and Administration of Test Drug
(§1) Female ddY mice of seven weeks age (n=8 to 12) were subjected to the following procedures: (A) The mice were subjected to forced swimming for 15 minutes, and then to normal breeding for two days. (B) The mice were subjected to breeding in an inclined cage for two days, and then to normal breeding for one day. (C) The mice were subjected to breeding for one day in a cage of which floor mat was made wet and then to normal breeding for one day. (D) The mice were subjected to breeding for one day with a cage rotating at a rate of 180 rotations/minute, and then to normal breeding for one day. Further, after one cycle of (A) to (D) was carried out, (B) to (D) were repeated for two cycles. As such, stress was applied over three weeks in total to prepare chronic mild stress-induced depression model mice. […]
Each of the MAP kinase (MAPK) and the phosphorylated MAP kinase (pMAPK) was subjected to immunoblot analysis, and 2 μg or 5 μg each of tissue-extracted proteins was subjected to electrophoresis. […] The staining intensity of each band was quantified, and a ratio of pMAPK to MAPK was obtained (n=4 to 7). […]

[2] = test system: transcription factor CREB; assay: Activation (phosphorylation) of CREB under mild stress loads, chronic mild stress-induced depression model mice; format: in vivo; details: normal control 0.95±0.09, stress-loaded control 0.50±0.07
[3] = test system: chronic mild stress-induced depression model mice; assay: Tail suspension test, suppressive effects of depression symptoms accompanying mild stress loads; format: in vivo; details: normal control 73.16±9.20, stress-loaded control 157.01±11.97
Description: as §1
The compounds of the present invention were administered as a test drug to the chronic mild stress-induced depression model mice of Test Example 3(1) mentioned above, and the model mice were then subjected to tail suspension test to evaluate suppressive effects of depression symptoms. […] The observations were made for 6 minutes, and the length of the immobility time, serving as an index of depression symptoms, was measured. […]

[4] = test system: chronic mild stress-induced depression model mice; assay: Light-dark test, suppressive effects of anxiety symptoms accompanying mild stress loads; format: in vivo; details: normal control 110.74±5.29, stress-loaded control 74.72±4.09
Description: as §1, with “cycles.” for “cycles. As such, stress was applied over three weeks in total to prepare chronic mild stress-induced depression model mice.”
The compounds of the present invention were administered as a test drug to the chronic mild stress-induced depression model mice of Test Example 3(1) mentioned above, and the model mice were then subjected to light-dark test to evaluate suppressive effects of anxiety symptoms. Specifically, a wooden rectangular apparatus composed of a light chamber and a dark chamber having a height of 50 cm, a length of 50 cm, a width of 25 cm was used, a mouse was placed in a dark chamber and allowed to freely search, and then the number of times invading into a light chamber, and the time staying in the light chamber were recorded for 5 minutes. […]

[5] = 1,000 μg/kg orally once every day for three weeks
[6] = 500 μg/kg orally once every day for three weeks

In the case of `CCCCCCC/C=C/C(=O)N1CCC(C(=O)O)CC1` [Compound 10, 1-((E)-2-Decenoyl)piperidine-4-carboxylic acid], the change in vivo at 0.3 mg/kg [1] was 44.6%, the “ratio of pMAPK to MAPK” value (MAP kinase (ERK1/2); [5]) was 1.00±0.04 and the “ratio of pCREB to CREB” value [2, 5] was 0.94±0.10. The immobility time ([3]; 6 minutes, 1,000 μg/kg) was 96.03 ± 25.24 s, the “staying time in the light chamber” value ([4]; 5 minutes, 1,000 μg/kg) was 107.05 ± 8.29 s and the melting point was 88 to 89 °C.

With `CCCCCCC/C=C/C(=O)N1CCC(N(C)C)CC1` [Compound 12, 1-((E)-2-decenoyl)-4-dimethylaminopiperidine] the change in vivo at 0.3 mg/kg [1] was 49.7%, the “ratio of pMAPK to MAPK” value (MAP kinase (ERK1/2); [6]) was 1.09±0.04 and the “ratio of pCREB to CREB” value [2, 6] was 1.08±0.14. The immobility time ([3]; 6 minutes, 500 μg/kg) was 69.26 ± 16.41 s and the “staying time in the light chamber” value ([4]; 5 minutes, 500 μg/kg) was 108.70 ± 12.06 s.
